Experimental data taken from paper PMC3433420 (PLoS ONE, 2012).
Residues, ends and D or L forms follow the SMILES beside them.

Tests used:
Assay in all cases: In-house protein microarrays (with or without 5 mM DTT), protein named per line
Assay type in all cases: binding
SH2 and PTB domains [1] = molecular target: T1, SH2 and PTB domains (Homo sapiens, UniProt P12931); conditions: protein SRC; PM assay replicate # 39307; array fabrication # 39286
T1 construct: thioredoxin; made in house; host or cells: BL21(DE3)pLysS E. coli
Method in brief: (§1)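 Recombinant domains (~40 µM) spotted in duplicate on aldehyde slides, quenched 1 h at room temperature in HEPES/KCl/Tween-20 buffer pH 7.8 with 5 mM DTT and 1% BSA, then probed with rhodamine-labeled peptide. Thioredoxin-subtracted mean fluorescence fitted for KD.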

SH2 and PTB domains [2] = molecular target: T2, SH2 and PTB domains (Homo sapiens, UniProt Q9BRG2); conditions: protein SH2D3A; PM assay replicate # 39307; array fabrication # 39286
T2 construct: thioredoxin; made in house; host or cells: BL21(DE3)pLysS E. coli
Method in brief: as §1

SH2 and PTB domains [3] = molecular target: T3, SH2 and PTB domains (Homo sapiens, UniProt P16885); conditions: protein PLCG2-NC
T3 construct: thioredoxin; made in house; host or cells: BL21(DE3)pLysS E. coli
T3 sequence (P16885 1-1265): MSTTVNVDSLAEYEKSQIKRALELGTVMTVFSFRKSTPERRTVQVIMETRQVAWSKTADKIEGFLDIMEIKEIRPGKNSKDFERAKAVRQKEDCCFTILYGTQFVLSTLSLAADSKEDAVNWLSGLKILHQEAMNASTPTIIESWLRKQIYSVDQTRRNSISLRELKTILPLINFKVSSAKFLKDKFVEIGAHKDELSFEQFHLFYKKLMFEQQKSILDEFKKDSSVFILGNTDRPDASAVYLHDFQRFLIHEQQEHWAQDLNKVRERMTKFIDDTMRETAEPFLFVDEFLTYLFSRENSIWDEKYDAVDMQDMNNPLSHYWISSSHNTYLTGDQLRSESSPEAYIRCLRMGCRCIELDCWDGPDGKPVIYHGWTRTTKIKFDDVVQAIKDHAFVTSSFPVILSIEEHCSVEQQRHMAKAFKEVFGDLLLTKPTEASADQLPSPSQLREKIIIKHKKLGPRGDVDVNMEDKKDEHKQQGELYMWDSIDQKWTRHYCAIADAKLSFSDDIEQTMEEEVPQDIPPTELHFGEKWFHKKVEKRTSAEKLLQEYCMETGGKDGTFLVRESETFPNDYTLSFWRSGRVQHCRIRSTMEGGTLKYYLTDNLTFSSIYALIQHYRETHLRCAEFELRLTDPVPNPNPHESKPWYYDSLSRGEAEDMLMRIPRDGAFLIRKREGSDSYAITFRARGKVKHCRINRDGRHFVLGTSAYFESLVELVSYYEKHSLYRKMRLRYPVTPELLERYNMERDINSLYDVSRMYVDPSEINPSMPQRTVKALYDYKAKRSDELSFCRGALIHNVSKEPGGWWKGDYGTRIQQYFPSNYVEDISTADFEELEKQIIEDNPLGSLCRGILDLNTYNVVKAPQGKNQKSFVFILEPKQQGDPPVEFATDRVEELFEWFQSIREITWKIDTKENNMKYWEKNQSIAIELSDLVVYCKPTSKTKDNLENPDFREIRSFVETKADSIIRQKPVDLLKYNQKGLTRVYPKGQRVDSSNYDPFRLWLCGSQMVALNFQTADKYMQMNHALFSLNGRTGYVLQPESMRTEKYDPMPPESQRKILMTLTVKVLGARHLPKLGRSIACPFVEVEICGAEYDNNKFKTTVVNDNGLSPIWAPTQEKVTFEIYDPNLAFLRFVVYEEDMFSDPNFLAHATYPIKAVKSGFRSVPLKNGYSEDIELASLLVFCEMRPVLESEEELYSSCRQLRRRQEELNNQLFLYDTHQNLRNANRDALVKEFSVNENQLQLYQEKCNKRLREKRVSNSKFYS
Method in brief: as §1

SH2 and PTB domains [4] = molecular target: T4, SH2 and PTB domains (Homo sapiens, UniProt O00459); conditions: protein PIK3R2-NC
T4 construct: thioredoxin; made in house; host or cells: BL21(DE3)pLysS E. coli
Method in brief: as §1

SH2 and PTB domains [5] = molecular target: T5, SH2 and PTB domains (Homo sapiens, UniProt P43405)
T5 construct: thioredoxin; made in house; host or cells: BL21(DE3)pLysS E. coli
Method in brief: as §1

SH2 and PTB domains [6] = molecular target: T6, SH2 and PTB domains (Homo sapiens, UniProt O43639); conditions: protein NCK2; PM assay replicate # 39307; array fabrication # 39286
T6 construct: thioredoxin; made in house; host or cells: BL21(DE3)pLysS E. coli
Method in brief: as §1

SH2 and PTB domains [7] = molecular target: T7, SH2 and PTB domains (Homo sapiens, UniProt P51451); conditions: protein BLK
T7 construct: thioredoxin; made in house; host or cells: BL21(DE3)pLysS E. coli
Method in brief: as §1

SH2 and PTB domains [8] = molecular target: T8, SH2 and PTB domains (Homo sapiens, UniProt Q92569); conditions: protein PIK3R3-NC
T8 construct: thioredoxin; made in house; host or cells: BL21(DE3)pLysS E. coli
Method in brief: as §1

[9] = PM assay replicate # 39337, array fabrication # 39329
[10] = PM assay replicate # 39351, array fabrication # 39336
[11] = PM assay replicate # 39352, array fabrication # 39336
[12] = protein SYK-NC, PM assay replicate # 39307, array fabrication # 39286
[13] = protein SYK-NC, PM assay replicate # 39351, array fabrication # 39336
[14] = protein SYK-NC, PM assay replicate # 39352, array fabrication # 39336
[15] = PM assay replicate # 39307, array fabrication # 39286

T7 sequence (P51451 whole entry, the tested form may be a part): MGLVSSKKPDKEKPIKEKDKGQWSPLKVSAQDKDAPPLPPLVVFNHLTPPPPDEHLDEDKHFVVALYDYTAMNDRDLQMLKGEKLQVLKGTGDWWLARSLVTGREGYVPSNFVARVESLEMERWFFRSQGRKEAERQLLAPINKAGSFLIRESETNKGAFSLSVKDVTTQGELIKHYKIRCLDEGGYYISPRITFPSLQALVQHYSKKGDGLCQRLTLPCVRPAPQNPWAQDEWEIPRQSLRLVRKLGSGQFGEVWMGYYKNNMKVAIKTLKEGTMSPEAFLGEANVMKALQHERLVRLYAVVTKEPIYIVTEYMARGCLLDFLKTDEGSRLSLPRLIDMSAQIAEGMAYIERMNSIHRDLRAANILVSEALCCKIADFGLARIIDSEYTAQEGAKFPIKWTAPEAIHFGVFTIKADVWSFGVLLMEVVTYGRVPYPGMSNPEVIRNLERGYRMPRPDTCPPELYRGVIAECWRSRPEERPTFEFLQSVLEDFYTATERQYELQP
T6 sequence (O43639 whole entry, the tested form may be a part): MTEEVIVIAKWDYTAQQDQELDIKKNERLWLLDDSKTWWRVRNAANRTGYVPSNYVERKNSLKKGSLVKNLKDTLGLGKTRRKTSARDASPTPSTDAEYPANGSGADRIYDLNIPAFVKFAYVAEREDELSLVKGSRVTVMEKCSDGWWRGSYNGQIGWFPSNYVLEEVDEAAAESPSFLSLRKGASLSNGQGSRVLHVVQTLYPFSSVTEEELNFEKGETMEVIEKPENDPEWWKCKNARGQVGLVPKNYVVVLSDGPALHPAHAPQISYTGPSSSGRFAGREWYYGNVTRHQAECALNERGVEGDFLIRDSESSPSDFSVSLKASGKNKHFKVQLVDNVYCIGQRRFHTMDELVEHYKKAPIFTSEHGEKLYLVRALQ
T1 sequence (P12931 whole entry, the tested form may be a part): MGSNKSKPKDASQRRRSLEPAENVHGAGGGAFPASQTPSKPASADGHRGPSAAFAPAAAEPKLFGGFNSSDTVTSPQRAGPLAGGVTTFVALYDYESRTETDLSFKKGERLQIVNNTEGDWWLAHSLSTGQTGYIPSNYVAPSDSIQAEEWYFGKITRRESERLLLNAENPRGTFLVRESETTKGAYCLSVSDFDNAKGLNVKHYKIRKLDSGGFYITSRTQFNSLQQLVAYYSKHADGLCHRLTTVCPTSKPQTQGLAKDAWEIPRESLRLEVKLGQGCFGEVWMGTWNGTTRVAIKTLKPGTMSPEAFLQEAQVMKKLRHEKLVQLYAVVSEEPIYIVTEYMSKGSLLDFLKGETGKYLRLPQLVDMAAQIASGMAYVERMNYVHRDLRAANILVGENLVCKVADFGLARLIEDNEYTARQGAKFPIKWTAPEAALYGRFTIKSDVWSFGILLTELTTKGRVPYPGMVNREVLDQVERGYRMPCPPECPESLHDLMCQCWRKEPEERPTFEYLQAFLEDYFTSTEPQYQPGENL
T4 sequence (O00459 whole entry, the tested form may be a part): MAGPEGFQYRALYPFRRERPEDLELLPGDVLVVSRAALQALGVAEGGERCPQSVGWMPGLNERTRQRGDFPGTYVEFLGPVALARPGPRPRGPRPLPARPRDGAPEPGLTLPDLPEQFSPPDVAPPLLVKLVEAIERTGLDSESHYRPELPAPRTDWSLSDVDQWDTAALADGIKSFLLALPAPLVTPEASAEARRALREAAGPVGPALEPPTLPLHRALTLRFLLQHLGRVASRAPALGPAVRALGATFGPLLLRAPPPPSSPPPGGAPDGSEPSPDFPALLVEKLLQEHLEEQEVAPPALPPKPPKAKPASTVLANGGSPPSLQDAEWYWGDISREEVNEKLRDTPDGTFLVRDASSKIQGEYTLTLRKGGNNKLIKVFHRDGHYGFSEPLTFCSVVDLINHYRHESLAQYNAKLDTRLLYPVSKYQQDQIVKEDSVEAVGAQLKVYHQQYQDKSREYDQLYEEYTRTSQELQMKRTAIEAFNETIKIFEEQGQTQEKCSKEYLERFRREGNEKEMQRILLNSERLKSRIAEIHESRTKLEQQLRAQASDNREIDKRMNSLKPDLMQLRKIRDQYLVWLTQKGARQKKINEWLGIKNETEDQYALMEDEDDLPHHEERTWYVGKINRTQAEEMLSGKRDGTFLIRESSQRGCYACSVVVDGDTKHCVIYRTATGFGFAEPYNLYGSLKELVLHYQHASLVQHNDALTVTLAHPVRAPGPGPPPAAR
T2 sequence (Q9BRG2 whole entry, the tested form may be a part): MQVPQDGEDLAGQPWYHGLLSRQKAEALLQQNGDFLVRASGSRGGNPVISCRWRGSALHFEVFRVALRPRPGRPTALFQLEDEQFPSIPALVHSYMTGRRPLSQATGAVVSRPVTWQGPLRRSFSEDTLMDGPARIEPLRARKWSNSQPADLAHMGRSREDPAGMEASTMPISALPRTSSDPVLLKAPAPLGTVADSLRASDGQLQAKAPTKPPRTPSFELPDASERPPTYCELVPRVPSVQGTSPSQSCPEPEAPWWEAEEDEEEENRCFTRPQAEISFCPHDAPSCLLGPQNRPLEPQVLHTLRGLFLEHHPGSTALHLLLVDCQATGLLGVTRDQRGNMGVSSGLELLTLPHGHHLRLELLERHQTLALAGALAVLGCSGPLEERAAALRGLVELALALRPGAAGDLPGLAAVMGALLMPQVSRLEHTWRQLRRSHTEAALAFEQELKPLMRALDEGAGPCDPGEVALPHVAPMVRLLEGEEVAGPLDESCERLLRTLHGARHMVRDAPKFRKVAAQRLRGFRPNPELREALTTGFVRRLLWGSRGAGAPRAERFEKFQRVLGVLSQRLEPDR

SMILES	Kd (SH2 and PTB domains [1]) [µM]	Kd (SH2 and PTB domains [2]) [µM]	Kd (SH2 and PTB domains [3]; [11]) [µM]	Kd (SH2 and PTB domains [5]; [12]) [µM]	Kd (SH2 and PTB domains [5]; [13]) [µM]	Kd (SH2 and PTB domains [5]; [14]) [µM]	Kd (SH2 and PTB domains [6]) [µM]	Kd (SH2 and PTB domains [7]; [15]) [µM]	Kd (SH2 and PTB domains [7]; [10]) [µM]	Kd (SH2 and PTB domains [7]; [11]) [µM]	other results
CCN(CC)c1ccc2c(-c3ccc(C(=O)N[C@@H](CC(N)=O)C(=O)NCC(=O)N4CCC[C@H]4C(=O)N4CCC[C@H]4C(=O)N[C@@H](CCCCN)C(=O)N[C@@H](C)C(=O)N[C@@H](CCC(=O)O)C(=O)N[C@@H](CC(=O)O)C(=O)N[C@@H](CCC(=O)O)C(=O)N[C@@H](Cc4ccc(OP(=O)(O)O)cc4)C(=O)N[C@H](C(=O)N[C@@H](CC(N)=O)C(=O)N[C@@H](CCC(=O)O)C(=O)N4CCC[C@H]4C(=O)N[C@@H](CC(C)C)C(=O)N[C@@H](Cc4ccc(O)cc4)C(=O)N[C@@H](CC(C)C)C(=O)N[C@@H](CC(=O)O)C(=O)O)C(C)C)cc3C(=O)[O-])c3ccc(=[N+](CC)CC)cc-3oc2c1 [ErbB4 1202 (18-mer)] (HELM PEPTIDE1{[CCN(CC)c1ccc2c(-c3ccc(C(=O)[*:2])cc3C(=O)[O-])c3ccc(=[N+](CC)CC)cc-3oc2c1].N.G.P.P.K.A.E.D.E.[O=C([C@H](Cc1ccc(OP(=O)(O)O)cc1)N[*:1])[*:2]].V.N.E.P.L.Y.L.D}$$$$V2.0)	0.40	1.00	0.61	0.95	0.81	1.15	10.06	0.45	2.29	2.39	Kd (SH2 and PTB domains [3]; [9]): 1.53 µM; Kd (SH2 and PTB domains [3]; [10]): 0.41 µM; Kd (SH2 and PTB domains [4]; [9]): 0.65 µM; Kd (SH2 and PTB domains [5]; protein SYK-NC, PM assay replicate # 39337, array fabrication # 39329): 1.42 µM; Kd (SH2 and PTB domains [7]; [9]): 7.84 µM; Kd (SH2 and PTB domains [8]; [9]): 1.18 µM; Kd (SH2 and PTB domains [8]; [11]): 1.72 µM
CC[C@H](C)[C@H](NC(=O)[C@H](CC(N)=O)NC(=O)[C@H](CC(N)=O)NC(=O)[C@H](CCCCN)NC(=O)[C@H](CC(C)C)NC(=O)[C@H](Cc1ccc(OP(=O)(O)O)cc1)NC(=O)[C@H](CCC(=O)O)NC(=O)[C@H](C)NC(=O)[C@H](CCCCN)NC(=O)CNC(=O)[C@H](CC(C)C)NC(=O)[C@@H](NC(=O)[C@H](CC(N)=O)NC(=O)[C@H](C)NC(=O)[C@@H](N)Cc1ccccc1)[C@@H](C)O)C(=O)N[C@@H](CC(C)C)C(=O)N[C@@H](CO)C(=O)N[C@@H](CC(=O)O)C(=O)O [ErbB4 pY1221 (18-mer)] (HELM PEPTIDE1{F.A.N.T.L.G.K.A.E.[O=C([C@H](Cc1ccc(OP(=O)(O)O)cc1)N[*:1])[*:2]].L.K.N.N.I.L.S.D}$$$$V2.0)	0.44	0.61	1.25	0.29	0.81	1.29	0.21	0.58	1.15	1.16	Kd (SH2 and PTB domains [3]; [15]): 1.38 µM; Kd (SH2 and PTB domains [4]; [15]): 1.34 µM; Kd (SH2 and PTB domains [5]; protein SYK-N, PM assay replicate # 39307, array fabrication # 39286): 9.49 µM; Kd (SH2 and PTB domains [5]; protein SYK-N, PM assay replicate # 39352, array fabrication # 39336): 15.60 µM; Kd (SH2 and PTB domains [8]; [15]): 0.54 µM
